Measurements from PubChem BioAssay (NCI).
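Dose response: 5 concentrations. Exposure: 48 h. Format: 96-well plates. Endpoint: linear interpolation; highest concentration if not reached. TGI denotes the concentration required for complete inhibition of growth.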

Experiments:
Test in all cases: growth of human tumour cells (NCI), 48 h
SNB-78 CNS = test system: SNB-78 CNS
KM20L2 colon = test system: KM20L2 colon
DMS 273 small cell lung = test system: DMS 273 small cell lung
LXFL 529 NSCLC = test system: LXFL 529 NSCLC
XF 498 CNS = test system: XF 498 CNS
HOP-18 NSCLC = test system: HOP-18 NSCLC
DLD-1 colon = test system: DLD-1 colon
DMS 114 small cell lung = test system: DMS 114 small cell lung
RXF-631 renal = test system: RXF-631 renal

| Structure (SMILES) | TGI (SNB-78 CNS) | TGI (KM20L2 colon) | TGI (DMS 273 small cell lung) | TGI (LXFL 529 NSCLC) | TGI (XF 498 CNS) | TGI (HOP-18 NSCLC) | TGI (DLD-1 colon) | TGI (DMS 114 small cell lung) | TGI (RXF-631 renal) |
| --- | --- | --- | --- | --- | --- | --- | --- | --- | --- |
| CN1Cc2cc3c(cc2-c2ccccc21)OCO3 | > 100 µM | > 100 µM | > 100 µM | > 100 µM | > 100 µM | > 100 µM | > 100 µM | – | – |
| CCCCCCCC(=O)OCC1OC(OC)C(NC(=O)N(CCCl)N=O)C(O)C1O (stereo not given) | 79.6 µM | > 59.2 µM | 15.9 µM | 42 µM | 30.6 µM | 72.3 µM | 28.6 µM | 29.6 µM | 19 µM |
| O=C(COC(=O)c1cccc2c(=O)c3ccccc3[nH]c12)Nc1ccccc1 | – | > 100 µM | > 100 µM | > 100 µM | 74.4 µM | > 100 µM | > 100 µM | 59.3 µM | 99 µM |
| CN(Cc1ccccc1)C(=NC#N)N(C)Cc1ccccc1 | > 100 µM | > 100 µM | > 100 µM | > 100 µM | – | – | > 100 µM | – | – |
| Cc1nn(C)cc1P(=S)(c1ccccc1)c1ccccc1 | > 100 µM | > 100 µM | > 100 µM | > 100 µM | > 100 µM | > 100 µM | > 100 µM | > 100 µM | – |
| CC(C)N1CN(C(C(=O)N[C@@H]2C(=O)N3C2SC(C)(C)C3C(=O)O)c2ccc(O)cc2)CSC1=S (stereo not given in full) | > 100 µM | > 100 µM | > 100 µM | > 100 µM | > 100 µM | > 100 µM | > 100 µM | > 100 µM | – |
| N#CCC(=O)N/N=C(\C(=O)Nc1ccc(Cl)c(Cl)c1)C1CN(c2ccccc2)N=C1N (stereo not given) | > 100 µM | > 100 µM | > 100 µM | > 100 µM | – | > 100 µM | > 100 µM | > 100 µM | – |
| Clc1cc2n[se]nc2cc1Cl | > 100 µM | > 100 µM | > 100 µM | > 100 µM | > 100 µM | > 100 µM | > 100 µM | > 100 µM | > 100 µM |
| O=C1C2CN(Cc3ccccc3)CC1CN(CC1CC1)C2 | – | > 100 µM | > 100 µM | > 100 µM | > 100 µM | > 100 µM | – | > 100 µM | – |
| Cc1ccc(C(=O)OCC(C)C)cc1N=NN(C)C | > 100 µM | > 100 µM | > 100 µM | > 100 µM | – | – | > 100 µM | – | – |
| CCOc1ccc(NC(=O)C2=C(C)NC(C)=C(C(=O)Nc3ccc(OCC)cc3)C2c2ccccc2)cc1 | > 100 µM | > 100 µM | > 100 µM | > 100 µM | > 100 µM | – | > 100 µM | > 100 µM | > 100 µM |
| COc1cc(/C=C2\C(=O)N(C(=O)c3ccc(NC(C)=O)cc3)N=C2C)ccc1O | > 100 µM | – | > 100 µM | – | – | > 100 µM | > 100 µM | > 100 µM | – |
| NCCN1C(=O)C2C3c4ccccc4C(c4ccccc43)C2C1=O (stereo not given) | > 100 µM | > 100 µM | > 100 µM | > 100 µM | – | > 100 µM | > 100 µM | > 100 µM | – |
| Cc1nn(-c2nc3ccccc3s2)c2c1C(=O)c1ccccc1-2 | > 100 µM | > 100 µM | > 100 µM | > 100 µM | – | > 100 µM | > 100 µM | > 100 µM | – |
| O=[N+]([O-])c1c(C=Nc2ccccc2)oc(-c2ccc3c(c2)OCO3)c1-c1ccc2c(c1)OCO2 | > 100 µM | > 100 µM | > 100 µM | > 100 µM | > 100 µM | – | > 100 µM | > 100 µM | > 100 µM |
| COc1c(C)cc2c(c1O)C1NC(C2)[C@H](O)N2C3COC(=O)[C@@]4(CS[C@@H](c5c(OC(C)=O)c(C)c6c(c53)OCO6)C12)NCCC1=C4NC2C=CC=CC12 (stereo not given in full) | – | < 0.01 µM | < 0.01 µM | 0.0117 µM | – | – | 0.0498 µM | < 0.01 µM | 0.167 µM |
| Cc1nc2ccccc2c(=O)n1NC(=S)Nc1ccc(Cl)cc1[N+](=O)[O-] | – | > 100 µM | – | > 100 µM | – | – | – | > 100 µM | – |
| CCOP(=O)(OCC)C(C(=O)OC)C(=O)C(=O)Nc1c(C)cc(Br)cc1C (stereo not given) | > 100 µM | > 100 µM | > 100 µM | > 100 µM | > 100 µM | > 100 µM | > 100 µM | > 100 µM | > 100 µM |
| COc1ccc(C=C(c2ccc(OCc3ccccc3)cc2)c2ccc(OCc3ccccc3)cc2)cc1 | > 100 µM | > 100 µM | > 100 µM | > 100 µM | > 100 µM | > 100 µM | > 100 µM | > 100 µM | > 100 µM |
| COc1ccc2[nH]cc(CCNC(=O)[C@](O)(Cc3cn(C)c4ccccc34)[C@@]3(O)OCC(O)C3O)c2c1 (stereo not given in full) | – | > 100 µM | > 100 µM | > 100 µM | > 100 µM | > 100 µM | > 100 µM | > 100 µM | > 100 µM |
| COc1cc(/C=C\c2cccnc2)cc(OC)c1OC | > 100 µM | > 100 µM | > 100 µM | > 100 µM | > 100 µM | > 100 µM | > 100 µM | > 100 µM | – |
